Measured values reported in patent publication US20090093669A1, “MAGNETOPHORESIS APPARATUS AND METHOD OF USE” (priority 2007, published 2009).
Like-named read-outs stand apart in the source and are kept apart here.

Assays:
[1] = type: in vitro ADME, beef
Source text: Each individual magnet had: • a residual induction value of at least 1,500 mT (magnetization of 1,200,000 amp/meter); • diameter of about 12.7 mm; and a • thickness of about 6.35 mm.
The magnets were arranged in an alternating polarity sequence on an iron flux ring (the iron flux ring is shaped like a washer). This positioning increased the field in the direction away from the flux ring. This arrangement is similar to the standard QuadraBloc® sold by Gradient Technologies, LLC. The magnetic field at the center of a North Pole of the magnets was about 530 mT. The array was placed over the drug such that the face of the magnets (away from the flux ring and towards the skin) covered the drug solution applied to the test material or skin. This configuration is described in U.S. applications Ser. No. 11/469,346 which is incorporated by reference herein.
The TENS unit used in the following experiments was set for 20 volts with a pulse rate of 100 Hz and a pulse width of 200 microseconds. Other usable settings will influence the results as the strength of the field is directly proportional to all of the variables and increasing any of the variables will drive the drug faster. The settings are important for treating underlying pain; however, when drugs are being applied at the same time as the TENS is being utilized to treat pain, it generally is not desirable to use the highest settings. […]
The test system used to determine the rates of dispersion in tissue was commercial homogenized beef tissue with various levels of lipids (fat) to cells compressed into 3 mm sheets. […] The beef tissue was purchased with selected levels of fat present in the samples as measured by the producer. […] The drug or formulation to be tested was placed on top of the tissue stack and then after a specified time the stack was separated and the individual 3 mm layers (bologna sheet/slice) were analyzed for the drug content. The drug migration was analyzed by extracting the tissue at the various depths with solvents and then quantifying the drug in that sample. […]

[2] = TENS electric field applied (20 volts, 100 Hz, 200 microseconds), fat free/low fat beef tissue
[3] = magnetic field applied, fat free/low fat beef tissue
[4] = quadrapolar magnetic field applied (530 mT at surface), fat free/low fat beef tissue
[5] = control test, no applied field, fat free/low fat (lean) beef tissue, unit not given

With `CCCCN1CCCCC1C(=O)Nc1c(C)cccc1C` (stereo not drawn) [bupivacaine] as the compound, how does the “enhancement of diffusion coefficient, TENS versus control” value (cattle) read?
Its value is 6-8 times.

And the “enhancement of diffusion coefficient, magnetic field versus control” value (shortened to “enhancement … magnetic field versus control”) (cattle)?
The value was 4-5 times.

Which “diffusion coefficient Dx” value [2] does the source give for `COc1cc(CNC(=O)CCCC/C=C/C(C)C)ccc1O` [capsaicin] here?
The value was 0.30 mm^2/min.

What about the “depth of penetration (front)” value (TENS electric field, first 30 minutes, fat free tissue) of the same compound?
Its value is 12 mm.

What about the “time to totally penetrate the height of the stacks” value (TENS electric field, 15 mm stack, fat free tissue) of the same compound?
The value was 60 min.

And the diffusion coefficient (cattle)?
Its diffusion coefficient is 0.02.

What about the “enhancement of diffusion coefficient, TENS versus control” value (cattle) of the same compound?
The value was 15 times.

What about the “diffusion coefficient Dx” value (cattle, 0.075 %) of the same compound?
The value was 0.02 mm^2/min.

And the “enhancement … magnetic field versus control” value [3]?
The value was 4.5 times.

And the depth of penetration (magnetic field, 30 minutes, fat free tissue)?
The depth of penetration was 7.5 mm.

And the depth of penetration (magnetic field, end of 240 minutes, total tissue system, fat free tissue)?
The depth of penetration was 15 mm.

And the “rate of penetration, magnetic field versus control” value (magnetic field, fat free sample)?
The value was “doubled”.

What about the “diffusion coefficient Dx” value [4] of the same compound?
The value was 0.09 mm^2/min.

And the depth of penetration (simple diffusion (control), 240 minutes, fat free tissue)?
The depth of penetration was 8 mm.

What about the depth of penetration (simple diffusion (control), after 30 minutes, fat free tissue) of the same compound?
Its depth of penetration is 4.5 mm.

And the “effect of TENS on the diffusion coefficient” value [1]?
Its value is “minimal effect”.

And the “diffusion coefficient in lipid containing tissue versus lean tissue” value ([1]; cattle, 0.075 %)?
Its value is “about 8 times”.

What about the “diffusion coefficient with magnets versus simple diffusion” value ([1]; cattle, 0.075 %) of the same compound?
The value was 3 times.

What does the source list for `O=C(c1ccccc1)c1ccc2n1CCC2C(=O)O` (stereo not drawn) [ketorolac]?
enhancement of diffusion coefficient, TENS versus control (cattle): 6-8 times; enhancement of diffusion coefficient, magnetic field versus control (cattle): 4-5 times

What does the source list for `CCN(CC)CC(=O)Nc1c(C)cccc1C` [lidocaine]?
diffusion coefficient Dx [2]: 0.12 mm^2/min; enhancement of diffusion coefficient, TENS versus control (TENS field applied, fat free/low fat beef tissue): 4.4 times; diffusion coefficient [5]: 0.027; enhancement of diffusion coefficient, magnetic field versus control [3]: about 1.5 times; increase in diffusion coefficient, magnets versus control (magnets applied, low fat beef tissue): 48%; diffusion coefficient Dx [4]: 0.04 mm^2/min

For insulin glargine, which “diffusion coefficient Dx” value [2] is on record?
Its value is 0.008 mm^2/min.

And the diffusion coefficient [5]?
The diffusion coefficient was 0.002.

What about the “enhancement … magnetic field versus control” value [3] of the same compound?
The value was “three and a half”.

What about the “diffusion coefficient Dx” value [4] of the same compound?
Its value is 0.007 mm^2/min.
